According to patent publication EP0880540B1, “17-BETA-CYCLOPROPYL(AMINO/OXY) 4-AZA STEROIDS AS ACTIVE INHIBITORS OF TESTOSTERONE 5-ALPHA-REDUCTASE AND C17-20-LYASE” (Aventis Pharmaceuticals Inc., priority 1996, dated 1997):

Key:
[1] = target: T1, cynomolgus monkey C17,20 lyase (Macaca fascicularis, UniProt Q2XVA1); test: In vitro C17,20 lyase assay, testicular microsomes; assay type: biochemical; conditions: mean of duplicates
T1 construct: microsomal preparations of the enzyme from testicular tissue; from tissue; host or cells: cynomolgus monkey testes, microsomes
T1 sequence (Q2XVA1 1-508): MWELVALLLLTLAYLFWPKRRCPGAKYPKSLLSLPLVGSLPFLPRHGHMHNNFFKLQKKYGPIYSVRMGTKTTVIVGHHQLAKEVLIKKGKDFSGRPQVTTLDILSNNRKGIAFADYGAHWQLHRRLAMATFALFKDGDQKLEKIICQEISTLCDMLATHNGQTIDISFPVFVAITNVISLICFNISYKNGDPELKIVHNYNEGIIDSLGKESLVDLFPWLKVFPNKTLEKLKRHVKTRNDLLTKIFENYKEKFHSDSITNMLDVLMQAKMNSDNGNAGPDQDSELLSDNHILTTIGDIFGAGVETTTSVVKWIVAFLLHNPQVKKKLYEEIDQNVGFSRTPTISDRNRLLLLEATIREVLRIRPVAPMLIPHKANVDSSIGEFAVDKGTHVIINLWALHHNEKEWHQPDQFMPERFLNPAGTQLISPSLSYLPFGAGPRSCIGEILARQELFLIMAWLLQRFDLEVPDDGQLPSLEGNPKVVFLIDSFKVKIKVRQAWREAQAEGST
Protocol: In vitro C17,20 lyase assays: Compounds were tested for inhibition of cynomolgus monkey C17,20 lyase in vitro using microsomal preparations of the enzyme from testicular tissue. Testes were removed from anesthetized animals and flash frozen in liquid nitrogen. Microsomes were isolated as described in Schatzman et al., Anal. Biochem. 175, 219-226 (1988). The compound to be tested was dissolved in dimethyl sulfoxide and diluted in 0.05 M potassium phosphate buffer, pH 7.4, to give the desired concentrations of test compound, in an amount which contributed 0.1% v/v DMSO to the total assay volume. Assays contained 0.05 M potassium phosphate buffer, pH 7.4, an NADPH regenerating system (1 mM NADPH, 5 mM glucose-6-phosphate, 1 IU/mL glucose-6-phosphate dehydrogenase), test compound, substrate and microsomal protein in a total volume of 0.2 mL. Control assays contained all components, including dimethyl sulfoxide, but not test ccmpound. All assays were performed in duplicate. The test compound was incubated with 20 to 62 µg/mL microsomal protein, buffer, and the NADPH regenerating system described above at 34°C for 0 or 40 minutes. Aliquots of 180 µL were then removed and assayed for enzyme activity by addition to 7-[^3H]-17α-hydroxypregnenolone (11.2 mCi/mmole; 0.2 µCi per assay) plus unlabeled 17α-hydroxypregnenolone dissolved in DMSO, contributing 2.5% v/v to the final assay mix, and phosphate buffer to give a total substrate concentration of 0.05 µM (=Km) per assay and subsequent incubation at 34°C for 6 minutes. Each assay was terminated by addition of 5 mL of chloroform:methanol (2:1). Carrier steroids representing substrates and produces (17α-hydroxypregnenolone, dehydroepiandrosterone, and androst-5-ene-3β,17β-diol) and 0.8 mL of distilled, deionized water were also added at this time. The steroids were extracted by the method of Moore and Wilson (Methods in Enzymol., eds. O. Malley, B.W. and Hardman, J.G. 36, 1975, pp. 466-474). The organic phase containing the steroids was evaporated using nitrogen gas, the residues dissolved in 18% tetrahydrofuran (v/v) in hexane, and the steroids were separated by HPLC on a Si60 (5 µm) column (250 x 4 mm) using a gradient of 18-22% tetrahydrofuran (v/v) in hexane. Radioactivity in the steroid peaks was measured using a Radiomatic® Model ES or Model A515 Flo-One® detector.
The enzyme activity for each assay was calculated from the percent conversion of substrate to products, and the results were expressed as percent inhibition of control. The following results were obtained, wherein the values indicated are the mean of duplicate determinations: Table 1: […]

[2] = target: T2, cynomolgus monkey prostatic 5α-reductase (Macaca fascicularis, UniProt Q28892); test: In vitro 5α-reductase assay, prostate microsomes; assay type: biochemical; conditions: mean of duplicates
T2 construct: microsomal preparations of the 5α-reductase enzyme from laboratory animal prostate tissue; from tissue; host or cells: cynomolgus monkey prostate, microsomes
T2 sequence (Q28892 1-254): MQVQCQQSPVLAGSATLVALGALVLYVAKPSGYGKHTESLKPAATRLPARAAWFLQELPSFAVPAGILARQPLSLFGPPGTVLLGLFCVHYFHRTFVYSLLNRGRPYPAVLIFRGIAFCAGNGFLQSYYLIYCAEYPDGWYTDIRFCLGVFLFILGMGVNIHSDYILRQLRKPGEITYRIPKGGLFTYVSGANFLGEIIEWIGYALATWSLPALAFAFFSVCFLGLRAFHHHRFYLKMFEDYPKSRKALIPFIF
Protocol: In vitro 5α-reductase assays: The activity of the present compounds as inhibitors of steroid 5α-reductase was determined using microsomal preparations of the 5α-reductase enzyme from laboratory animal prostate tissue. Specifically, microsomes were isolated from cynomolgus monkey prostate tissue. Protein concentration of the microsomal preparations was determined prior to use of the samples. Individual assays of cynomolgus monkey prostatic 5α-reductase activity contained 0.1 M potassium phosphate-sodium citrate buffer, pH 5.6 1.0% (w/v) bovine serum albumin, […] sodium EDTA, 4 µg of microsomal protein, 1.0 mM NADPH, 5.0 mM glucose-6-phosphate, 1 IU/mL glucose-6-phosphate dehydrogenase, [1,2-^3H]-testosterone (0.15 µCi) plus unlabeled testosterone to yield 0.015 µM (Km = 0.015 µM to 0.091 µM in multiple determinations), and test compound which was dissolved in DMSO then diluted in 0.1 M potassium phosphate-sodium citrate buffer, pH 5.6, to yield a final assay concentration of 0.1% (v/v) DMSO. The same buffer and DMSO without test compound were used in control assays. Background radioactivity was determined from assays containing all components except enzyme. Assays were performed in duplicate. Microsomes, 0.1 M potassium phosphate-sodium citrate buffer, pH 5.6, and test compound were preincubated at 37°C. Aliquots of 180 µL were removed after 0 or 40 minutes of preincubation and added to […] of testosterone substrate suspended in 0.1 M potassium phosphate-sodium citrate buffer, pH 5.6, containing 10% (v/v) DMSO. Remaining enzyme activity was assayed for 10 minutes at 37°C in a Dubnoff shaker incubator.
The reactions were terminated by the addition of 5 mL CHCl3:methanol (2:1) and 0.9 mL water. Carrier steroids were added in the form of 2.5 µg each of testosterone, dihydrotestosterone, and 3,17-androstanediol. Steroid metabolites were then extracted according to the procedure of Moore and Wilson (Methods in Enzymol., O'Malley, B.W. and Hardman, J.G. eds., 36, 1975, pp. 466-474), the organic phase containing the steroids was evaporated using nitrogen gas, the residues were dissolved in 3% (v/v) isopropanol in hexane. The steroids were then separated by normal phase HPLC on a LiCrosorb® DIOL derivatized silica gel column (10 µm; 4 x 250 mm) with a 3% to 7.5% isopropanol in hexane gradient, followed by isocratic conditions of […] isopropanol in hexane. Radioactivity in the steroid peaks was measured using a Packard Radiomatic model HS Flo-One detector. When the compound were tested using the above procedures with cynomolgus monkey 5α-reductase, the following results were obtained: Table 2: […]

`C[C@]12CC[C@H]3[C@@H](CC=C4NC(=O)CC[C@@]43C)[C@@H]1CC[C@@H]2OC1CC1` (stereo in doubt) [MDL 103,496, 17β-Cyclopropyloxy-4-aza-androst-5-en-3-one] was tested, and the inhibition at 0.1 µM ([1]; preincubation 0 min) was 5%, the inhibition at 0.1 µM ([1]; preincubation 40 min) was 26.6% and the inhibition at 1 µM ([1]; preincubation 0 min) was 29%. The inhibition at 1 µM ([1]; preincubation 40 min) was 62.2%, the inhibition at 10 µM ([1]; preincubation 0 min) was 39.2% and the inhibition at 10 µM ([1]; preincubation 40 min) was 87.7%. The inhibition at 0.1 µM ([2]; preincubation 0 min) was 24.6%, the inhibition at 0.1 µM ([2]; preincubation 40 min) was 29.5% and the inhibition at 1 µM ([2]; preincubation 0 min) was 86.2%. It also gave an inhibition at 1 µM ([2]; preincubation 40 min) of 86.7%, an inhibition at 10 µM ([2]; preincubation 0 min) of 99.6% and an inhibition at 10 µM ([2]; preincubation 40 min) of 99.4%.
